Results reported in patent US8916570B2 (The United States of America, as represented by the …, priority 2008, dated 2014).
Where a chain is given by its changes, count along the chain named. Like-named read-outs stand apart in the source and are kept apart here. Marks after values point to notes of the source that are not given here.

Legend:
human A1 receptors = molecular target: T1, human A1 receptors (Homo sapiens, UniProt P30542); experiment: Binding at human A1 receptor, CHO membranes (Example 4); details: read-out: Affinity (Ki nM) A1
T1 construct: expressed in transfected cells; host or cells: CHO
T1 sequence (P30542 1-326): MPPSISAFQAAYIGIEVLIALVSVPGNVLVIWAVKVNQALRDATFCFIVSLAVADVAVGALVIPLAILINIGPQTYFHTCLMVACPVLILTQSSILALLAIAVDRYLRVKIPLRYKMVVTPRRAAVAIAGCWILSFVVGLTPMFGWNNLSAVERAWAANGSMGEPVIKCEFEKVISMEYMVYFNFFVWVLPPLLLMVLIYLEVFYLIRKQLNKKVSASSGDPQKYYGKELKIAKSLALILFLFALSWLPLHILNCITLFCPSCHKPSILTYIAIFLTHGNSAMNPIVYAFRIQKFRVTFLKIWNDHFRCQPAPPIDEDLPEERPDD
Excerpt: The reaction was terminated by filtration with GF/B filters.

mA3AR = molecular target: T2, mA3AR (Mus musculus, UniProt Q61618); details: values from Melman et al.; read-out: Affinity (Ki, nM) mA3; cited from earlier work
T2 construct: expressed in transfected cells
T2 sequence (Q61618 1-319): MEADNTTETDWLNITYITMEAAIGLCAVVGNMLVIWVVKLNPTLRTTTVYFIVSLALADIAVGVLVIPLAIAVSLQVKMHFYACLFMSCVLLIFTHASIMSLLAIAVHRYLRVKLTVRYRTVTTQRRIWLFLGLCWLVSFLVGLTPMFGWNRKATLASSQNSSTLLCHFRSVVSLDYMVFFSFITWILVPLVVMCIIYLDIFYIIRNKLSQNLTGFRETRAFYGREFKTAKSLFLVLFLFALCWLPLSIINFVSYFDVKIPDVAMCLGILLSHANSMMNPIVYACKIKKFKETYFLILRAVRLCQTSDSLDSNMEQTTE

mA2AAR = molecular target: T3, mA2AAR (Mus musculus, UniProt Q60613); details: values from Melman et al.; read-out: Affinity (Ki, nM) mA2A; cited from earlier work
T3 construct: expressed in transfected cells
T3 sequence (Q60613 whole entry): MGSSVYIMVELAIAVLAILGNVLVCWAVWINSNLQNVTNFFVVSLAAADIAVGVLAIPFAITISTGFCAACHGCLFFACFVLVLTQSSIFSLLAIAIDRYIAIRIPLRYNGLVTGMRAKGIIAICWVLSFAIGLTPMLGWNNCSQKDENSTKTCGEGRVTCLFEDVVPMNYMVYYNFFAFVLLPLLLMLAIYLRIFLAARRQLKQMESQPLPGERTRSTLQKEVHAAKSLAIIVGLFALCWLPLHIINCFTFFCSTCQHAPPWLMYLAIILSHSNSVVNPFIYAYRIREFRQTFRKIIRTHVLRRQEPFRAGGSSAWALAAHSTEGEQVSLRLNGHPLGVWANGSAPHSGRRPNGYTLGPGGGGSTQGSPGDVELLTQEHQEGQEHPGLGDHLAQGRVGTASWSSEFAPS

[1] = molecular target: T4, human A1 adenosine receptor (Homo sapiens, UniProt P30542); parameters: expressed in transfected cells; host or cells: CHO; details: species H (human); data from Tchilibon et al. or Kim et al.; cited from earlier work
T4 sequence (P30542 1-326): T1 sequence (P30542 1-326)

hA2AAR = molecular target: T5, hA2AAR (Homo sapiens, UniProt P29274); details: cited from earlier work
T5 construct: expressed in transfected cells
T5 sequence (P29274 whole entry): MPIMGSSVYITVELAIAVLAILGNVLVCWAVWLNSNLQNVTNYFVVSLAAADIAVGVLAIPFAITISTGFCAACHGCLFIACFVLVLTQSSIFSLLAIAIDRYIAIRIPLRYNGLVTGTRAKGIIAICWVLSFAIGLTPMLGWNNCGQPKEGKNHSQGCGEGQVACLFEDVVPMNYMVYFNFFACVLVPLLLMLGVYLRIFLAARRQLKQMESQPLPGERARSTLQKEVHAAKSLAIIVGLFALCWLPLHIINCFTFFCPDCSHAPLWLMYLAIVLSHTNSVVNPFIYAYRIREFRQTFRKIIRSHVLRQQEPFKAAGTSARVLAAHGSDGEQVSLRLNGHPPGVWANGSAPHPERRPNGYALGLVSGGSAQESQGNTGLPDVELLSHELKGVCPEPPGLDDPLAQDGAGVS

mA1AR = molecular target: T6, mA1AR (Mus musculus, UniProt Q60612); details: values from Melman et al.; read-out: Affinity (Ki, nM) mA1; cited from earlier work
T6 construct: expressed in transfected cells
T6 sequence (Q60612 1-326): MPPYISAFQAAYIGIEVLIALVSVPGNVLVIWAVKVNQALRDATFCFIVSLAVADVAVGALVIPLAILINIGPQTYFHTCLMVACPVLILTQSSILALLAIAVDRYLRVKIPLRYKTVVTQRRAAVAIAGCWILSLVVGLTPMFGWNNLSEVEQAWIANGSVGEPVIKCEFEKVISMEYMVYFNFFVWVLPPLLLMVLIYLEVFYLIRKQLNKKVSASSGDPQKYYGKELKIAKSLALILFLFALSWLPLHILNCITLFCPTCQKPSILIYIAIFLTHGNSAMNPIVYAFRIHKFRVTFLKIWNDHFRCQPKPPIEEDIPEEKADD

[2] = molecular target: mouse A2A adenosine receptor (Mus musculus, UniProt Q60613); experiment: Competition radioligand binding, mouse A2A AR, HEK293 membranes (Table 1); details: read-out: A2A Ki; species M (mouse); [3H]CGS21680
mouse A2A adenosine receptor, sequence (Q60613 whole entry): as the sequence (Q60613 whole entry) above

[3] = molecular target: T7, mouse A3 adenosine receptor (Mus musculus, UniProt Q61618); experiment: Competition radioligand binding, mouse A3 AR, HEK293 membranes (Table 1); details: for Ki: read-out: A3 Ki, species M (mouse), [125I]I-AB-MECA
T7 sequence (Q61618 1-319): T2 sequence (Q61618 1-319)

[4] = molecular target: human A2A adenosine receptor (Homo sapiens, UniProt P29274); parameters: expressed in transfected cells; details: species H (human), cited from earlier work; for Ki: data from Tchilibon et al. or Kim et al.
human A2A adenosine receptor, sequence (P29274 whole entry): as the sequence (P29274 whole entry) above

[5] = molecular target: T8, mouse A1 adenosine receptor (Mus musculus, UniProt Q60612); experiment: Competition radioligand binding, mouse A1 AR, HEK293 membranes (Table 1); details: read-out: A1 Ki; species M (mouse); [125I]I-AB-MECA; mean ± SEM
T8 sequence (Q60612 1-326): T6 sequence (Q60612 1-326)

hA1AR = molecular target: T9, hA1AR (Homo sapiens, UniProt P30542); details: values from the literature (footnotes c, d); read-out: Affinity (Ki, nM) hA1; cited from earlier work
T9 construct: expressed in transfected cells; host or cells: CHO
T9 sequence (P30542 1-326): T1 sequence (P30542 1-326)

rat A3 AR [6] = molecular target: T10, rat A3 AR (Rattus norvegicus, UniProt P28647); details: species R (rat); data from Tchilibon et al. / Lee et al.; cited from earlier work
T10 sequence (P28647 1-320): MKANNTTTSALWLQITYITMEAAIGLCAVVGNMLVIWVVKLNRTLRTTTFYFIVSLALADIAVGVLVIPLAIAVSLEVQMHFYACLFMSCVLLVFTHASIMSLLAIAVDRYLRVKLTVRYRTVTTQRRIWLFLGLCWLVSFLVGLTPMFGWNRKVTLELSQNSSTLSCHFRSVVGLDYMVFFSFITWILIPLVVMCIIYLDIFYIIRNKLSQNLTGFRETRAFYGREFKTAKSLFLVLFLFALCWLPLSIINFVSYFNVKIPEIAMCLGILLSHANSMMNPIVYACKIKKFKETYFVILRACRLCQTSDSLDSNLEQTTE

human A3 receptor = molecular target: T11, human A3 receptor (Homo sapiens, UniProt P0DMS8); experiment: Binding assay at the human A3 receptor, CHO membranes (Example 4)
T11 sequence (P0DMS8 1-318): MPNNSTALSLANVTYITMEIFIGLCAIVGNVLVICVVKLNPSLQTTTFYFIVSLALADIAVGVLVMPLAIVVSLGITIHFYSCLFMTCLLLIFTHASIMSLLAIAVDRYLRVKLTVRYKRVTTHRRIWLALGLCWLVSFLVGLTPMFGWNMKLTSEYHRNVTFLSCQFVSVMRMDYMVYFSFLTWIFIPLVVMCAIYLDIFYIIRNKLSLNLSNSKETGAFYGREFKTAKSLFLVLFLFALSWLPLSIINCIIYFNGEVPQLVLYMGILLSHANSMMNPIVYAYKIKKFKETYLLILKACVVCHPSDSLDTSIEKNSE
Description: Cell culture and membrane preparation: CHO (Chinese hamster ovary) cells expressing the recombinant human A3AR were cultured in DMEM (Dulbecco's modified Eagle's medium) supplemented with 10% fetal bovine serum, 100 units/mL penicillin, 100 μg/mL streptomycin, 2 μmol/mL glutamine and 800 μg/mL geneticin. The CHO cells expressing rat A3ARs were cultured in DMEM and F12 (1:1). Cells were harvested by trypsinization. After homogenization and suspension, cell membranes were centrifuged at 500 g for 10 min, and the pellet was re-suspended in 50 mM Tris.HCl buffer (pH 8.0) containing 10 mM MgCl2, 1 mM EDTA and 0.1 mg/mL CHAPS (3[(3-cholamidopropyl)dimethylammonio]-propanesulfonic acid). […] The protein concentration was measured using the Bradford assay.
The mixtures were incubated at 37° C. for 60 min. Binding reactions were terminated by filtration through Whatman GF/B filters under reduced pressure using a MT-24 cell harvester (Brandell, Gaithersburgh, Md., USA). Filters were washed three times with 9 mL ice-cold buffer. Radioactivity was determined in a Beckman 5500B γ-counter.

rat A1 AR = molecular target: T12, rat A1 AR (Rattus norvegicus, UniProt P25099); details: species R (rat); data from Lee et al.; cited from earlier work
T12 sequence (P25099 1-326): T6 sequence (Q60612 1-326) with E151V, A155D, I157R, E316D, I319L, D325E

[7] = molecular target: T4, human A1 adenosine receptor; experiment: Radioligand binding, human A1 AR, CHO membranes (Table 1); details: read-out: A1 Ki; species H (human)
rat A2A AR = rat A2A AR (Rattus norvegicus, UniProt P30543); details: species R (rat); data from Lee et al.; cited from earlier work
rat A2A AR, sequence (P30543 whole entry): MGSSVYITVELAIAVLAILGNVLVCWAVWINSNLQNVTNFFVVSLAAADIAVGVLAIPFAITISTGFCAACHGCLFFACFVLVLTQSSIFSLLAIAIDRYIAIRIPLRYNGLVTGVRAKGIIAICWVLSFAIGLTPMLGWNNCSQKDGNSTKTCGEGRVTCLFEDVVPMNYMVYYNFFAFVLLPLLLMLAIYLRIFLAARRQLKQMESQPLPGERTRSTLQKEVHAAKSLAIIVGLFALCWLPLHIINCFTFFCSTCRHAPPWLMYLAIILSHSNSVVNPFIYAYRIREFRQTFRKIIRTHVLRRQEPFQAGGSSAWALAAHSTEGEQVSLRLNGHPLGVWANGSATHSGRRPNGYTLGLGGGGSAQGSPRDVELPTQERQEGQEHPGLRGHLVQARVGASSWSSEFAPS

rat A3 AR [8] = molecular target: T10, rat A3 AR; experiment: Radioligand binding, rat A3 AR (Table 1); details: species R (rat)

Row | Structure (SMILES) | Ki (mA3AR) | Ki [1] | Ki (mA1AR) | Ki [2] | Ki [3] | Ki [4] | Ki [5] | Ki (hA1AR) | Ki (rat A3 AR [6]) | other results
1 | COc1ccc(OC)c(CNc2nc(Cl)nc3c2ncn3C2C(O)C(O)C3CC32)c1 (stereo not drawn) [Compound 111b, (1′R,2′R,3′S, 4′R,5′S)-4′-[2-Chloro-6-(2,5-dimethoxybenzylamino)purine]-2′,3′-O-dihydroxybicyclo-[3.1.0]hexane] |  |  |  |  |  |  |  |  |  | Ki (human A1 receptors): 3000 nM
2 | CNC(=O)[C@@]12C[C@@H]1[C@@H](n1cnc3c(NCc4cccc(Cl)c4)nc(Cl)nc31)[C@H](O)[C@@H]2O [Compound 13] | 1.49 ± 0.46 nM | 260 ± 60 nM | 15.3 ± 5.8 nM | 10400 ± 1700 nM | 1.49 ± 0.46 nM | 2300 ± 100 nM | 15.3 ± 5.8 nM | 260 ± 60 nM | 1 nM | Ki (mA2AAR): 10400 nM; Ki (hA2AAR; values from the literature (footnotes c, d), read-out: Affinity (Ki, nM) hA2A): 2300 ± 100 nM
3 | O[C@@H]1[C@H](O)[C@@H]2C[C@@H]2[C@H]1n1cnc2c(Nc3cccc4ccccc34)nc(Cl)nc21 [Compound 110b, (1′R,2′R,3′S, 4′R,5′S)-4′-[2-Chloro-6-(1-naphthylamino)purine]-2′,3′-O-dihydroxybicyclo[3.1.0]hexane] |  |  |  |  |  |  |  |  |  | binding to the A3AR (in words) (human A3 receptor): nanomolar binding affinity
4 | CNC(=O)[C@@]12C[C@@H]1[C@@H](n1cnc3c(NC)nc(Cl)nc31)[C@H](O)[C@@H]2O [Compound 12] | 49 ± 3.9 nM |  | 55.3 ± 6 nM |  | 49 ± 3.9 nM |  | 55.3 ± 6 nM | 2100 ± 1700 nM | 160 ± 30 nM | Ki (rat A1 AR): 805 nM; % inhibition hA2A (hA2AAR; inhibition of radioligand binding at 10 μM, values from the literature): (6%); A2A % inhib. ([4]; percent inhibition at 10 μM, data from Tchilibon et al.): (6%)^d,f; Ki [7]: 2010 ± 1700 nM; Ki (rat A2A AR): > 10000 nM
5 | CNC(=O)[C@@]12C[C@@H]1[C@@H](n1cnc3c(NCc4cccc(Br)c4)nc(Cl)nc31)[C@H](O)[C@@H]2O [Compound 14] |  | 270 nM |  | 6390 ± 870 nM | 0.9 ± 0.22 nM | 1300 nM | 8.79 ± 0.12 nM |  |  | Selectivity A1/A3 ([3]; mouse): 9.8; Ki (rat A3 AR [8]): 0.76 nM
